# Measured values from paper PMC7893776, “Selecting an anti-malarial clinical candidate from two potent dihydroisoquinolones” (Malaria Journal, 2021).
# Like-named read-outs stand apart in the source and are kept apart here.
# Test: Dog pharmacokinetics, single PO or IV dose
# Type: in vivo, male beagle dogs
# Settings: for bioavailability: read-out: Dog F (oral bioavailability)
# Source text: Studies were undertaken to determine the plasma pharmacokinetics of SJ733 and SJ311. These studies included: (i) single oral gavage (PO) or intravenous (IV) dose administration to female C57BL/6 mice; (ii) single PO or IV dose administration to male Sprague Dawley (SD) rats; (iii) single PO or IV dose administration to male beagle dogs; (iv) toxicokinetic (TK) study following single PO administration to male SD rats. The PO and IV formulation used for mouse studies at SJCRH was 1% hydroxypropyl-beta-cyclodextrin (w/v), 10% ethanol (v/v), 10% propylene glycol (v/v), 40% PEG-400 (v/v) and 39% PBS (pH 7.4) isotonic (v/v). Compounds were dosed orally as suspensions, and intravenously as filtered solutions. Compound concentrations were confirmed post filtration using UV spectroscopy. The IV formulation used for rat studies (Monash University) was the same as that used for mice. For PO dosing to rats (Monash University) at 2 mg/kg, a suspension formulation was used containing 0.5% (w/v) hydroxypropyl methylcellulose, 0.5% (v/v) benzyl alcohol and 0.4% (v/v) Tween 80. The formulation used for rat studies at SRI (PO, high dose) was the same as that used in mouse PK studies. The formulation for the high dose TK study at SRI was 0.5% methylcellulose in sterile water. The formulation used for dog studies was the same as that used in mouse PK studies. The plasma PK of SJ733 and SJ311 following a single PO gavage or IV dose (via saphenous vein) to male beagle dogs was determined at an IV dose of 3 mg/kg and PO doses of 3 and 30 mg/kg (n = 3 for each). Briefly, this PK study was carried out in three sessions with one week washout period in between to allow for complete clearance of compounds. In the first session, 6 male dogs were administered a single 3 mg/kg IV dose of SJ311 or SJ733. In the subsequent second and third sessions, the same 6 male dogs were given a single 3 mg/kg or 30 mg/kg PO dose of SJ311 or SJ733, respectively. Plasma (0 -72 h) and urine (0–48 h) samples were collected for further analysis of SJ311 or SJ733 concentrations. Dog plasma was extracted utilizing protein precipitation with a twofold volume ratio of acetonitrile, while urine samples were extracted utilizing liquid–liquid extraction with ethyl acetate. SJ733, SJ311, and verapamil (IS) were quantitated by LC–MS/MS as described above. Plasma concentration time (Ct) data for SJ733 and SJ311 were grouped by nominal time point, and the mean Ct values were subjected to noncompartmental analysis (NCA) using Phoenix WinNonlin 8.1 (Certara USA, Inc., Princeton, NJ). For all experiments, the area under the Ct and first moment curves (AUC, AUMC) were estimated using the “linear up log down” method. The terminal phase was defined as at least three time points at the end of the Ct profile, and the elimination rate constant (Kel) was estimated using an unweighted log-linear regression of the terminal phase. The terminal elimination half-life (T1/2) was estimated as 0.693/Kel, and the AUC from time 0 to infinity ([…]) was estimated as the AUC to the last time point (AUClast) + Clast (predicted)/Kel with the […] similarly calculated. Additional parameters estimated included observed maximum concentration (Cmax), time of Cmax (Tmax), concentration at the last observed time point (Clast), time of Clast (Tlast), and the apparent oral terminal volume of distribution (V/F). The apparent oral clearance (CL/F), systemic clearance (CL) and volume of distribution at steady state (Vss) were all estimated using standard formulae [19].
# [1] = male, beagle, plasma, po, dosed orally, read-out: Tmax
# [2] = male, beagle, plasma, po, summary over the oral doses studied
Tmax [1],bioavailability [2],AUCinf (single IV 3 mg/kg),CL (single IV 3 mg/kg),Dose in urine (single IV 3 mg/kg),Half life (single IV 3 mg/kg),Vss (single IV 3 mg/kg),AUCinf (single PO 3 mg/kg),CL (single PO 3 mg/kg),Cmax (single PO 3 mg/kg),Dose in urine (single PO 3 mg/kg),F% (single PO 3 mg/kg),Half life (single PO 3 mg/kg),Tmax (single PO 3 mg/kg),V (single PO 3 mg/kg),AUCinf (single PO 30 mg/kg),CL (single PO 30 mg/kg),Cmax (single PO 30 mg/kg),Dose in urine (single PO 30 mg/kg),F% (single PO 30 mg/kg),Compound,other results
1 h,60 to 100%,–,–,–,–,–,–,–,–,–,–,–,–,–,–,–,–,–,–,N#Cc1cc(NC(=O)[C@H]2c3ccccc3C(=O)N(CC(F)(F)F)[C@@H]2c2cccnc2)ccc1F (racemic) [SJ733],Dog F (oral bioavailability) (summary over the oral doses studied): 74-115%
–,–,77.0 ± 12.4 µM·h,0.085 ± 0.013 L/h/kg,32.3 ± 21.3%,7.8 ± 2.2 h,0.96 ± 0.27 L/kg,56.2 ± 12.1 µM·h,0.121 ± 0.030 L/h/kg,4 ± 0.8 µM,34.7 ± 15.9%,73.0 ± 15.8%,6.1 ± 0.6 h,3.3 ± 1.2 h,1.1 ± 0.4 L/kg,601 ± 137 µM·h,0.113 ± 0.025 L/h/kg,35 ± 5.1 µM,33.4%,77.9 ± 17.7%,N#Cc1cc(NC(=O)[C@H]2c3ccccc3C(=O)N(CC(F)(F)F)[C@@H]2c2cn[nH]c2)ccc1F [(+)-SJ311],Half life (single PO 30 mg/kg): 6.7 ± 1.4 h; Tmax (single PO 30 mg/kg): 3.0 ± 1.7 h; V (single PO 30 mg/kg): 1.1 ± 0.4 L/kg
–,–,33.1 ± 10.0 µM·h,0.204 ± 0.054 L/h/kg,1.9 ± 0.3%,9.6 ± 4.7 h,2.8 ± 1.8 L/kg,40.6 ± 12.9 µM·h,0.169 ± 0.055 L/h/kg,3 ± 0.7 µM,2.8 ± 0.2%,115 ± 29%,11.4 ± 5.0 h,0.83 h,2.6 ± 0.8 L/kg,243 ± 52.9 µM·h,0.274 ± 0.067 L/h/kg,25.6 ± 2.1 µM,3.1 ± 1.9%,73.7 ± 16.1%,N#Cc1cc(NC(=O)[C@H]2c3ccccc3C(=O)N(CC(F)(F)F)[C@@H]2c2cccnc2)ccc1F [(+)-SJ733],Half life (single PO 30 mg/kg): 5.3 ± 0.7 h; Tmax (single PO 30 mg/kg): 1.67 h; V (single PO 30 mg/kg): 2.1 ± 0.8 L/kg
3 h,74 to 78%,–,–,–,–,–,–,–,–,–,–,–,–,–,–,–,–,–,–,N#Cc1cc(NC(=O)[C@H]2c3ccccc3C(=O)N(CC(F)(F)F)[C@@H]2c2cn[nH]c2)ccc1F [SJ311],"% dose recovered in dog urine (regardless of route, mean): 32-34%"
